Values of other authors as cited in patent US20260191865A1, “CANCER THERAPY WITH CAPIVASERTIB AND FULVESTRANT” (AstraZeneca AB, priority 2022, published 2026).
Like-named read-outs stand apart in the source and are kept apart here.

Tested on: ER-positive, HER2-negative advanced breast cancer

## NC1(C(=O)N[C@@H](CCO)c2ccc(Cl)cc2)CCN(c2ncnc3[nH]ccc23)CC1 [capivasertib, (S)-4-amino-N-(1-(4-chlorophenyl)-3-hydroxypropyl)-1-(7H-pyrrolo[2,3-d]pyrimidin-4-yl)piperidine-4-carboxamide]
NGS-identified pathway non-altered subgroup
  PFS and overall survival benefit: no such benefit
Capivasertib added to fulvestrant, postmenopausal women, AI-resistant, no previous CDK4/6 inhibitor
  progression-free survival (PFS): significant improvement
Expanded (NGS) PI3K/AKT/PTEN pathway-altered subgroup, updated analysis
  PFS and overall survival benefit: significant PFS and overall survival benefit
Original pathway-altered and original pathway non-altered subgroups, capivasertib added to fulvestrant
  benefit by original pathway status (secondary endpoint subgroup analysis): conferred benefit
